Experimental data published in paper PMC5587309, “Involvement of arginine 878 together with Ca^2+ in mouse aminopeptidase A substrate specificity for N-terminal acidic amino-acid residues” (PLoS ONE, 2017).
Changes are numbered by the printed parent chain. Where two headings read alike, the source gives them in different places.

Tests used:
APN = tested on: APN; design: method as in PMID 7915326; conditions: cited from earlier work
R878K mutated mAPA = target: T1, R878K mutated mAPA (Mus musculus, UniProt P16406, R878K); assay: Inhibition of GluNA hydrolysis by purified recombinant R878K His-mAPA; format: biochemical; conditions: R878K mAPA; for Ki: 0.5 mM GluNA, read-out: Ki
T1 construct: made in house; host or cells: stably transfected CHO-K1 cells
T1 sequence (P16406 1-945 R878K): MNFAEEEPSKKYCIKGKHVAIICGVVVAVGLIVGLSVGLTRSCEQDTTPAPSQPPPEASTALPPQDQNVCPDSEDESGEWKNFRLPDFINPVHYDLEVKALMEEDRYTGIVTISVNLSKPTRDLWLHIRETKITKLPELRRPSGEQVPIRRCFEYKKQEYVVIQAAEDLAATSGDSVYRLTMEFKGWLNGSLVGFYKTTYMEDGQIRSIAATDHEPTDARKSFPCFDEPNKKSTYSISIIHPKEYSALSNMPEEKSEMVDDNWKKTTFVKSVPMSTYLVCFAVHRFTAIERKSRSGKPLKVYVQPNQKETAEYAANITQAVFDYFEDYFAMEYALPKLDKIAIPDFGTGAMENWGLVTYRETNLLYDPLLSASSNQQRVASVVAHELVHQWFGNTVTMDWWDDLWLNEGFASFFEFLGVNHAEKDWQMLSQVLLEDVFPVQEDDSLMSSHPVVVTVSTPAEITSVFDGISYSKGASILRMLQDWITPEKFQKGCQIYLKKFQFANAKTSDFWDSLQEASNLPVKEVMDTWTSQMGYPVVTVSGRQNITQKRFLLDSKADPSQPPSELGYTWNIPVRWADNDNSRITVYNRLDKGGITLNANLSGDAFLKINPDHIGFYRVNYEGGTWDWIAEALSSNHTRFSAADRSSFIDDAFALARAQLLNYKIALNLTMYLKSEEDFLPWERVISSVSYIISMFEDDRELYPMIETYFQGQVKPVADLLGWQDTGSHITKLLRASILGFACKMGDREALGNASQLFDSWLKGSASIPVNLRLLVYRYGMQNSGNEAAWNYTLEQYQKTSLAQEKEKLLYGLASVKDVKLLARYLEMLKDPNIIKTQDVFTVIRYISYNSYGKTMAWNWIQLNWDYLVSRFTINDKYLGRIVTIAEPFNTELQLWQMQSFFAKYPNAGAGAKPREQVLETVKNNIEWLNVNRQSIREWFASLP
Description: (§1) Enzyme assays were carried out for wild-type and mutated His-mAPAs in 50 mM Tris-HCl buffer, pH 7.4, with or without 4 mM CaCl2, by monitoring the rate of hydrolysis of GluNA, as previously described. The sensitivity to Ca^2+ of purified wild-type and mutated His-mAPA was determinated by incubating 0.5 mM GluNA with 0 to 4 mM CaCl2 in a final volume of 100 μl of 50 mM Tris-HCl buffer, pH 7.4. All the assays were performed in black 96-well plates (solid black 96-well flat-bottomed non-treated plates with no lid; Corning Costar). All of the enzymatic studies were performed such that substrate hydrolysis rates were maintained below 10% (initial rate conditions). The kinetic curves were monitored by following the increase in fluorescence at 460 nm (lex = 330 nm), induced by the release of the β-naphthylamide fluorogenic part of the substrate by APA. Fluorescence signals were monitored by counting photons with a spectrophotometer (Fusion universal microplate analyser; Packard) equipped with a temperature control device and a plate shaker. The kinetic parameters (Km and kcat) were determined from Michaelis-Menten plots, using GraphPad Prism 4 software (GraphPad) with a final concentration of substrate (GluNA) from 0.005 to 5 mM with or without 4 mM Ca^2+. For evaluation of the substrate specificity of APA with or without 4 mM Ca^2+, the rate of hydrolysis of […] additional substrates, α-L-aspartate-β-naphthylamide (AspNA), α-L-alanine-β-naphthylamide (AlaNA) and basic α-L-lysine-β-naphthylamide (LysNA), was determined under the same experimental conditions as described for GluNA. The sensitivity of wild-type and mutated His-mAPAs to inhibition by [(3S)-3-amino-4-sulfanyl-butane-1-sulfonic acid] (EC33), glutamate-thiol (GluSH), glutamate-phosphonic-acid (GluPO3H2), methionine-thiol (MetSH) and lysine-thiol (LysSH) was determined by establishing dose-dependent inhibition curves for a final GluNA concentration of 0.5 mM in the presence or absence of 4 mM CaCl2. These compounds being linear competitive inhibitors, their Ki were calculated from the formula Ki = IC50/ (1+ [GluNA]/Km).

APA = target: APA; design: method as in PMID 7915326; conditions: read-out: inhibitory potency on APA; cited from earlier work
wild-type mAPA = target: T2, wild-type mAPA (Mus musculus, UniProt P16406); assay: Kinetic parameters of substrate hydrolysis by wild-type His-mAPA; format: biochemical; conditions: for Km / kcat: wild type mAPA
T2 construct: made in house; host or cells: stably transfected CHO-K1 cells
T2 sequence (P16406 1-945): T1 sequence (P16406 1-945 R878K) with K878R
Description: as §1

Row | SMILES | Ki (R878K mutated mAPA; 4 mM Ca2+) | Ki (R878K mutated mAPA; absence of calcium) | Km (wild-type mAPA; 4 mM Ca2+) | kcat (wild-type mAPA; 4 mM Ca2+) | Km (wild-type mAPA; no Ca2+) | kcat (wild-type mAPA; no Ca2+) | further results
1 | N[C@H](CS)CCS(=O)(=O)O [EC33, (3S)‐3‐amino‐4‐sulfanylbutane‐1‐sulfonic acid] | 1.52 ± 0.126 µM |  |  |  |  |  | fold less active on APN than on APA (APN): 100 fold; Ki (APA): 0.1 µM
2 | N[C@H](CS)CCC(=O)O [GluSH, (4S)-4-amino-5-sulfanylpentanoic acid] | 2.1 ± 0.44 µM | > 10 µM |  |  |  |  | enhancement of inhibitory potency by 4 mM Ca2+ compared to Ki in the absence of Ca2+ (R878K mutated mAPA): 6.6 fold
3 | C[C@H](N)C(=O)Nc1ccc2ccccc2c1 [HAlaβNA, α-L-alanine-β-naphthylamide] |  |  | 321 ± 41 µM | 17.4 ± 0.6 s⁻¹ | 394 ± 20 µM | 21.6 ± 0.5 s⁻¹ | 
4 | N[C@@H](CC(=O)O)C(=O)Nc1ccc2ccccc2c1 [HAspβNA, α-L-aspartate-β-naphthylamide] |  |  | 54 ± 1.4 µM | 68.1 ± 1.3 s⁻¹ | 149 ± 15.6 µM | 10.4 ± 0.6 s⁻¹ | 
5 | N[C@@H](CCC(=O)O)C(=O)Nc1ccc2ccccc2c1 [HGluβNA, α-L-glutamyl-β-naphthylamide] |  |  | 39.1 ± 3.9 µM | 81.7 ± 4.0 s⁻¹ | 165 ± 13.5 µM | 13.9 ± 0.1 s⁻¹ | increase of cleavage efficiency (kcat/Km) by addition of Ca2+ (wild-type mAPA; wild-type APA, 4 mM Ca2+ vs no Ca2+): 25 fold
6 | NCCCC[C@H](N)C(=O)Nc1ccc2ccccc2c1 [HLysβNA, α-L-lysine-β-naphthylamide] |  |  | 244 ± 29.5 µM | 25.8 ± 0.2 s⁻¹ | 304 ± 49.7 µM | 16.4 ± 0.7 s⁻¹ | 
7 | NCCCC[C@H](N)CS [LysSH, (2S)-2,6-diaminohexane-1-thiol] | 13.9 ± 0.39 µM | 0.378 ± 0.02 µM |  |  |  |  | 
8 | CSCC[C@H](N)CS [MetSH] | 5.14 ± 0.56 µM | 1.25 ± 0.057 µM |  |  |  |  | 
